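These data come from cells grown in 96-well plates and exposed to compound for 48 hours at five concentrations. The concentration for 50% growth inhibition is given as GI50. Definition used: TGI = concentration required for complete inhibition of growth.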
Columns and labels:
Assay in all cases: inhibition of tumour cell growth, NCI panel, 48 h
CAKI-1 renal = tested on: CAKI-1 renal
A549 NSCLC = tested on: A549 NSCLC
NCI-H226 lung = tested on: NCI-H226 lung
EKVX NSCLC = tested on: EKVX NSCLC
HCC-2998 colon = tested on: HCC-2998 colon
RPMI-8226 leukemia = tested on: RPMI-8226 leukemia
SNB-75 CNS = tested on: SNB-75 CNS
HCT-15 colon = tested on: HCT-15 colon
SNB-19 CNS = tested on: SNB-19 CNS
NCI-H522 lung = tested on: NCI-H522 lung

CN(C)c1nc(NC23CC4CC(CC(C4)C2)C3)nc(N(C)C)n1
TGI (CAKI-1 renal): > 100 µM
TGI (A549 NSCLC): > 39.4 µM
TGI (NCI-H226 lung): > 77.6 µM
TGI (EKVX NSCLC): > 100 µM
TGI (HCC-2998 colon): 97.1 µM
TGI (RPMI-8226 leukemia): 12.7 µM
TGI (SNB-75 CNS): > 55.2 µM
TGI (HCT-15 colon): 41.2 µM
TGI (SNB-19 CNS): > 40.1 µM

Cc1ccc(S(=O)(=O)/N=C(\NN)Nc2ccc(Cl)cc2)cc1
TGI (CAKI-1 renal): > 100 µM
TGI (A549 NSCLC): > 100 µM
TGI (NCI-H226 lung): > 100 µM
TGI (EKVX NSCLC): > 100 µM
TGI (RPMI-8226 leukemia): > 100 µM
TGI (SNB-75 CNS): > 100 µM
TGI (HCT-15 colon): > 100 µM
TGI (SNB-19 CNS): > 100 µM

CCCCCCCCCCCCCCCCCCNc1ccn(C2OC(COP(=O)(O)OCC3CCC(n4cnc5c(=O)[nH]cnc54)O3)C(O)C2O)c(=O)n1 (stereo not drawn)
TGI (CAKI-1 renal): > 100 µM
TGI (A549 NSCLC): > 100 µM
TGI (NCI-H226 lung): > 100 µM
TGI (EKVX NSCLC): > 100 µM
TGI (NCI-H522 lung): > 100 µM
TGI (SNB-75 CNS): > 100 µM
TGI (HCT-15 colon): > 100 µM
TGI (SNB-19 CNS): > 100 µM

COC(=O)c1ccccc1C#CC#Cc1ccccc1C(=O)OC
TGI (CAKI-1 renal): > 10 µM
TGI (A549 NSCLC): > 10 µM
TGI (NCI-H226 lung): > 10 µM
TGI (EKVX NSCLC): > 10 µM
TGI (HCC-2998 colon): > 10 µM
TGI (NCI-H522 lung): > 10 µM
TGI (RPMI-8226 leukemia): > 10 µM
TGI (HCT-15 colon): > 10 µM
TGI (SNB-19 CNS): > 10 µM

O=C1O/C(=C(\Br)c2cccc3ccccc23)c2ccccc21
TGI (A549 NSCLC): 35.9 µM
TGI (NCI-H226 lung): > 55.7 µM
TGI (EKVX NSCLC): > 59.7 µM
TGI (HCC-2998 colon): > 100 µM
TGI (NCI-H522 lung): 33 µM
TGI (RPMI-8226 leukemia): 71.4 µM
TGI (SNB-75 CNS): > 87.2 µM
TGI (HCT-15 colon): > 65.6 µM

O=c1[nH]nc(-c2ccccc2)n1/N=C/c1c[nH]c2ccccc12
TGI (CAKI-1 renal): > 100 µM
TGI (A549 NSCLC): > 100 µM
TGI (NCI-H226 lung): > 100 µM
TGI (EKVX NSCLC): > 100 µM
TGI (HCC-2998 colon): > 100 µM
TGI (NCI-H522 lung): > 100 µM
TGI (RPMI-8226 leukemia): > 100 µM
TGI (HCT-15 colon): > 100 µM
TGI (SNB-19 CNS): > 100 µM

O=C(NCCC(F)(F)C(F)(F)C(F)(F)C(F)(F)F)NC1OC(CO)C(O)C(O)C1O (stereo not drawn)
TGI (CAKI-1 renal): > 100 µM
TGI (A549 NSCLC): > 100 µM
TGI (HCC-2998 colon): > 100 µM
TGI (RPMI-8226 leukemia): > 100 µM
TGI (SNB-75 CNS): > 100 µM
TGI (HCT-15 colon): > 100 µM
TGI (SNB-19 CNS): > 100 µM

CCOC(=O)Oc1cc2c(c(OC)c1OC)-c1ccc(SC)c(=O)cc1C(NC(=O)C(F)(F)F)CC2 (stereo not drawn)
TGI (CAKI-1 renal): 0.0928 µM
TGI (A549 NSCLC): > 100 µM
TGI (NCI-H226 lung): 0.00301 µM
GI50 (HCC-2998 colon): 0.0146 µM
TGI (NCI-H522 lung): 0.00253 µM
TGI (RPMI-8226 leukemia): 14.1 µM
TGI (SNB-75 CNS): > 100 µM
TGI (HCT-15 colon): > 100 µM
TGI (SNB-19 CNS): > 100 µM

CCOC(=O)c1cc(C(=O)c2ccccc2)n2nc(-c3ccc(Cl)cc3)ccc12
TGI (CAKI-1 renal): 81.3 µM
TGI (A549 NSCLC): 30.8 µM
TGI (NCI-H226 lung): 55.8 µM
TGI (EKVX NSCLC): 42.6 µM
TGI (HCC-2998 colon): 51 µM
TGI (NCI-H522 lung): 43.7 µM
TGI (RPMI-8226 leukemia): > 100 µM
TGI (HCT-15 colon): > 100 µM
TGI (SNB-19 CNS): 34.8 µM

Clc1ccc(Cc2nc3ccc(CCN4CCN(c5ccccc5)CC4)cc3[nH]2)cc1
TGI (CAKI-1 renal): 38.6 µM
TGI (A549 NSCLC): 33 µM
TGI (NCI-H226 lung): 51.3 µM
TGI (EKVX NSCLC): 79.9 µM
TGI (NCI-H522 lung): 28.4 µM
TGI (RPMI-8226 leukemia): 54.5 µM
TGI (SNB-75 CNS): 38.3 µM
TGI (HCT-15 colon): 39.8 µM
TGI (SNB-19 CNS): 41.6 µM

Cc1nc2c(n1C(C)(C)C)C(=O)c1ccccc1C2=O
TGI (A549 NSCLC): > 100 µM
TGI (NCI-H226 lung): > 100 µM
TGI (EKVX NSCLC): > 100 µM
TGI (HCC-2998 colon): > 100 µM
TGI (NCI-H522 lung): > 100 µM
TGI (SNB-75 CNS): > 100 µM
TGI (HCT-15 colon): > 100 µM
TGI (SNB-19 CNS): > 100 µM
